# Test results as given in PubChem BioAssay AID504748 (National Center for Advancing Translational Sciences (NCATS), 2011).
# Test system: mouse liver microsomes, percent remaining, LC-MS/MS
# Assay: Inhibitors of N370S glucocerebrosidase as a Potential Chaperone Treatment of Gaucher Disease: Metabolic Stability Profile
# Settings: at 5 µM; active compounds read high
# Text: Glucocerebrosidase (GC) catalyzes the hydrolysis of beta-glucocerebroside to glucose and ceramide in lysosomes. Mutations in the glucocerebrosidase gene result in Gaucher disease, an autosomal recessive lysosomal storage disorder. Many of the mutations encountered in patients with Gaucher disease are missense alterations that may cause misfolding, decreased stability and/or mistrafficking of this lysosomal protein. […] These inhibitors include iminosugar analogs and three non-iminosugar inhibitors identified from a previous HTS of 62,000 compounds with the wild type recombinant enzyme. After further testing a probe has been identified and was characterized though AMDE tests. Mouse liver microsomes are created through broken up endoplasmic reticulum from mouse liver. These liver microsomes contain many drug metabolizing enzymes, such as Cytochome P-450s and flavin-containing monooxygenases. […] NIH Chemical Genomics Center [NCGC] NIH Molecular Libraries Probe Production Centers Network [MLPCN] MLPCN Grant: MH086442-01 Assay Submitter (PI): Wei Zheng
# 5uM of compound is incubated with mouse liver microsome; the reference compounds are verapamil and warfarin. Compounds are incubated and samples are analyzed with LC-MS/MS.
smiles,measurement,value
S=C(NCCCc1cnc[nH]1)NCCCN(Cc1ccc(Cl)c(Cl)c1)c1ccc(Br)cn1,percent remaining,102%
